{
  "source": "patent US20050101595A1",
  "about": "“N-containing cycloalkyl-substituted amino-thiazole derivatives and pharmaceutical compositions for inhibiting cell proliferation and methods for their use” (PFIZER INC., priority 2003, published 2005)",
  "key": {"[1]": {"target": "human CDK4 and genetically truncated (1-264) cyclin D3 (Homo sapiens, UniProt P11802)", "sequence (P11802 whole entry, the tested form may be a part)": "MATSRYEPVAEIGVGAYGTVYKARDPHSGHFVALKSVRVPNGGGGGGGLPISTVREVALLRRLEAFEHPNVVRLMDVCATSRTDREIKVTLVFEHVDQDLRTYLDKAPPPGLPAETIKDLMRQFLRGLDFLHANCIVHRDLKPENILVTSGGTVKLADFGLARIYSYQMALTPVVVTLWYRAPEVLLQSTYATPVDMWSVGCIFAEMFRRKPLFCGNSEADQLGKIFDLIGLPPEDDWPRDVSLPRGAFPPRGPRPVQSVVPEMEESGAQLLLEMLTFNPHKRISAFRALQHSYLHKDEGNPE", "sequence (P30281 1-264 partner)": "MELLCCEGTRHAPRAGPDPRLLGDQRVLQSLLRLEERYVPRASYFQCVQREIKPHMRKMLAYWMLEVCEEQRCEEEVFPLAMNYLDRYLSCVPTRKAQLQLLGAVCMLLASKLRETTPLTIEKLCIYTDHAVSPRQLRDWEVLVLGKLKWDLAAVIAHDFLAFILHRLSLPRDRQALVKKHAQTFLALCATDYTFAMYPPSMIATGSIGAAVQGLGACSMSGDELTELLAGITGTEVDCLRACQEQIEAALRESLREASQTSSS", "test": "Inhibition of CDK4/Cyclin D Retinoblastoma Kinase Activity", "type": "biochemical", "conditions": "for Ki: apparent Ki, CDK4/truncated cyclin D3, Rb fragment substrate, 25 μM ATP", "how_it_was_run": "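Apparent Ki values come from competitive or competitive tight-binding inhibition fits of background-corrected 32P/33P incorporation into His-tagged Rb fragment (386-928), captured on nitrocellulose. Reaction: 5 nM insect-cell-expressed human CDK4 with cyclin D3 (1-264), 25 μM ATP, pH 7.4 HEPES, 2% DMSO, 30° C., 20 min, extended to 60 min for tight-binding inhibitors.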"}, "CDK2/Cyclin A": {"target": "CDK2/Cyclin A (Homo sapiens, UniProt P24941)", "test": "Inhibition of CDK2/Cyclin A Retinoblastoma Kinase Activity", "type": "biochemical", "conditions": "for Ki: apparent Ki, CDK2/proteolyzed cyclin A, Rb fragment substrate, 25 μM ATP; for CDK2 % Inhibition At 0.03 μM: Table 2", "how_it_was_run": "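Radiometric filter-binding readout of phosphate transfer to an Rb substrate fragment by purified CDK2/truncated cyclin A at 10 or 19 nM. Run at pH 7.4 with 25 μM ATP, 30 °C, 60–75 min, linear rates; background without enzyme subtracted, Ki from competitive-inhibition models.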"}, "HCT-116 cell line": {"system": "HCT-116 cell line", "test": "Inhibition of cell growth, tetrazolium salt (MTT) assay", "type": "cell-based", "conditions": "for IC50: Homo sapiens, HCT-116, 120 h, MTT, three to five days, read-out: HCT-116 IC50; for HCT-116 % Inhibition at 0.25 μM: 0.25 μM compound", "how_it_was_run": "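Cells in McCoy's 5A medium were left 4 h, then given graded compound concentrations in 0.5% (v/v) DMSO and incubated three to five days at 37° C (5% CO2). MTT was added to 0.2 mg/mL for 4 h more; DMSO-solubilized formazan was read at 540 nm against 0.5% DMSO-only controls.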"}},
  "note": "Where a name gives a salt, the structure may show the parent alone. Read-outs that look alike come from different tables or passages of the source.",
  "data": [
    {"smiles": "CC(CN(C)C)Oc1ccc(S(=O)(=O)N2CCC(Nc3nc(N)c(C(=O)c4c(F)cccc4F)s3)CC2)cn1", "note": "(racemic) [Example H13, 1-(4-Amino-2-{1-[6-(2-dimethylamino-1RS-methyl-ethoxy)-pyridine-3-sulfonyl]-piperidin-4-ylamino}-thiazol-5-yl)-1-(2,6-fifluoro-phenyl)-methanone Dihydrochloride]", "values": [
      {"measurement": "Ki", "setting": "[1]", "value": 0.00065, "unit": "µM"},
      {"measurement": "Ki", "setting": "CDK2/Cyclin A", "value": 0.0011, "unit": "µM"},
      {"measurement": "IC50", "setting": "HCT-116 cell line; first HCT-116 column (c4)", "value": 0.09, "unit": "µM"},
      {"measurement": "IC50", "setting": "HCT-116 cell line; second HCT-116 column (c5)", "value": 0.4, "unit": "µM"}
    ]},
    {"smiles": "CCOC(=O)CCCC(=O)N1CCC(Nc2nc(N)c(C(=O)c3c(F)cccc3F)s2)CC1", "note": "[Example R3]", "values": [
      {"measurement": "CDK4 % Inhibition at 0.03 μM", "setting": "[1]; at 0.03 μM", "value": 42, "unit": "%"},
      {"measurement": "CDK2 % Inhibition at 0.03 μM", "setting": "CDK2/Cyclin A; at 0.03 μM", "value": "−6", "unit": "%"},
      {"measurement": "HCT-116 % Inhibition at 0.1 μM", "setting": "HCT-116 cell line; HCT-116 cells, at 0.1 μM", "value": 8, "unit": "%"},
      {"measurement": "HCT-116 5 Inhibition at 0.25 μM", "setting": "HCT-116 cell line; HCT-116 cells, at 0.25 μM", "value": 37}
    ]},
    {"smiles": "CN1CCN=C1c1ccc(S(=O)(=O)N2CCC(Nc3nc(N)c(C(=O)c4c(F)cccc4F)s3)CC2)cc1", "note": "[Example J1, 1-[4-Amino-2-{1-[4-(1-methyl-4,5-dihydro-1H-imidazol-2-yl)-benzenesulfonyl]-piperidin-4-ylamino}-thiazol-5-yl)-1-(2,6-difluoro-phenyl)-methanone]", "values": [
      {"measurement": "Ki", "setting": "[1]", "value": 0.00063, "unit": "µM"},
      {"measurement": "Ki", "setting": "CDK2/Cyclin A", "value": "< 0.001", "unit": "µM"},
      {"measurement": "IC50", "setting": "HCT-116 cell line; first HCT-116 column (c4)", "value": 1.2, "unit": "µM"},
      {"measurement": "IC50", "setting": "HCT-116 cell line; second HCT-116 column (c5)", "value": 5, "unit": "µM"}
    ]},
    {"smiles": "CCOC(=O)C(NC(=O)N1CCC(Nc2nc(N)c(C(=O)c3c(F)cccc3F)s2)CC1)C(C)C", "note": "(stereo not shown) [Example O74]", "values": [
      {"measurement": "CDK4 % Inhibition at 0.03 μM", "setting": "[1]; 0.03 μM compound, Table 2", "value": 102, "unit": "%"},
      {"measurement": "CDK2 % Inhibition At 0.03 μM", "setting": "CDK2/Cyclin A; 0.03 μM compound", "value": 35, "unit": "%"},
      {"measurement": "HCT-116 % Inhibition at 0.25 μM", "setting": "HCT-116 cell line; HCT-116, Table 2", "value": 34, "unit": "%"}
    ]},
    {"smiles": "Nc1nc(NC2CCN(S(=O)(=O)c3ccc(CCN4CCOCC4)nc3)CC2)sc1C(=O)c1c(F)cccc1F", "note": "[Example N3, (4-Amino-2-{1-[6-(2-morpholin-4-yl-ethyl)-pyridine-3-sulfonyl]-piperidin-4-ylamino}-thiazol-5-yl)-(2,6-difluoro-phenyl)-methanone Hydrochloride Salt.]", "values": [
      {"measurement": "Ki", "setting": "[1]", "value": 0.00076, "unit": "µM"},
      {"measurement": "Ki", "setting": "CDK2/Cyclin A", "value": 0.0011, "unit": "µM"},
      {"measurement": "IC50", "setting": "HCT-116 cell line; first HCT-116 column (c4)", "value": 0.17, "unit": "µM"},
      {"measurement": "IC50", "setting": "HCT-116 cell line; second HCT-116 column (c5)", "value": "> 0.5", "unit": "µM"}
    ]},
    {"smiles": "CCCc1ccccc1NC(=O)N1CCC(Nc2nc(N)c(C(=O)c3c(F)cccc3F)s2)CC1", "note": "[Example O81]", "values": [
      {"measurement": "CDK4 % Inhibition at 0.03 μM", "setting": "[1]; 0.03 μM compound, Table 2", "value": "−4", "unit": "%"},
      {"measurement": "CDK2 % Inhibition At 0.03 μM", "setting": "CDK2/Cyclin A; 0.03 μM compound", "value": 25, "unit": "%"},
      {"measurement": "HCT-116 % Inhibition at 0.25 μM", "setting": "HCT-116 cell line; HCT-116, Table 2", "value": 44, "unit": "%"}
    ]},
    {"smiles": "Nc1nc(NC2CCN(S(=O)(=O)CCN3CCCC3)CC2)sc1C(=O)c1c(F)cccc1F", "note": "[Example K35, 1-{4-Amino-2-[1-(2-pyrrolidin-1-yl-ethanesulfonyl)-piperidin-4-ylamino]-thiazol-5-yl}-1-(2,6-difluoro-phenyl)-methanone.]", "values": [
      {"measurement": "Ki", "setting": "[1]", "value": 0.0011, "unit": "µM"},
      {"measurement": "Ki", "setting": "CDK2/Cyclin A", "value": 0.003, "unit": "µM"},
      {"measurement": "IC50", "setting": "HCT-116 cell line; first HCT-116 column (c4)", "value": 0.14, "unit": "µM"},
      {"measurement": "IC50", "setting": "HCT-116 cell line; second HCT-116 column (c5)", "value": 0.45, "unit": "µM"}
    ]},
    {"smiles": "Nc1nc(NC2CCN(S(=O)(=O)c3ccc(N4CCOCC4)nc3)CC2)sc1C(=O)c1c(F)cccc1F", "note": "[Example F20, 1-{4-Amino-2-[1-(6-morpholin-4-yl-pyridine-3-sulfonyl)-piperidin-4-ylamino]-thiazol-5-yl}-1-(2,6-difluoro-phenyl)-methanone Hydrochloride]", "values": [
      {"measurement": "Ki", "setting": "[1]", "value": 0.0013, "unit": "µM"},
      {"measurement": "Ki", "setting": "CDK2/Cyclin A", "value": 0.0014, "unit": "µM"},
      {"measurement": "IC50", "setting": "HCT-116 cell line; first HCT-116 column (c4)", "value": 0.17, "unit": "µM"},
      {"measurement": "IC50", "setting": "HCT-116 cell line; second HCT-116 column (c5)", "value": 1.3, "unit": "µM"}
    ]},
    {"smiles": "CN(C)CCS(=O)(=O)N1CCC(Nc2nc(N)c(C(=O)c3c(F)cccc3F)s2)CC1", "note": "[Example F26, {4-Amino-2-[1-(2-dimethylamino-ethanesulfonyl)-piperidin-4-ylamino]-thiazol-5-yl}-(2,6-difluoro-phenyl)-methanone]", "values": [
      {"measurement": "Ki", "setting": "[1]", "value": 0.0022, "unit": "µM"},
      {"measurement": "Ki", "setting": "CDK2/Cyclin A", "value": 0.015, "unit": "µM"},
      {"measurement": "IC50", "setting": "HCT-116 cell line; first HCT-116 column (c4)", "value": 0.28, "unit": "µM"},
      {"measurement": "IC50", "setting": "HCT-116 cell line; second HCT-116 column (c5)", "value": 0.65, "unit": "µM"}
    ]},
    {"smiles": "CCOC(=O)CNC(=O)N1CCC(Nc2nc(N)c(C(=O)c3c(F)cccc3F)s2)CC1", "note": "[Example O30]", "values": [
      {"measurement": "CDK4 % Inhibition at 0.03 μM", "setting": "[1]; 0.03 μM compound, Table 2", "value": 16, "unit": "%"},
      {"measurement": "CDK2 % Inhibition At 0.03 μM", "setting": "CDK2/Cyclin A; 0.03 μM compound", "value": 27, "unit": "%"},
      {"measurement": "HCT-116 % Inhibition at 0.25 μM", "setting": "HCT-116 cell line; HCT-116, Table 2", "value": 31, "unit": "%"}
    ]},
    {"smiles": "Nc1nc(NC2CCN(S(=O)(=O)c3c(Cl)cc(Cl)cc3Cl)CC2)sc1C(=O)c1c(F)cccc1F", "note": "[Example P57]", "values": [
      {"measurement": "CDK4 % Inhibition at 0.03 μM", "setting": "[1]; 0.03 μM compound, Table 3", "value": 6, "unit": "%"},
      {"measurement": "CDK2 % Inhibition at 0.03 μM", "setting": "CDK2/Cyclin A; 0.03 μM compound, Table 3", "value": 23, "unit": "%"},
      {"measurement": "HCT-116 % Inhibition at 0.1 μM", "setting": "HCT-116 cell line; 0.1 μM compound, HCT-116, Table 3", "value": 9, "unit": "%"},
      {"measurement": "HCT-116 % Inhibition at 0.25 μM", "setting": "HCT-116 cell line; HCT-116, Table 3", "value": 31, "unit": "%"}
    ]},
    {"smiles": "CC(C)OC(=O)NS(=O)(=O)N1CCC(Nc2nc(N)c(C(=O)c3c(F)cccc3F)s2)CC1", "note": "[Example E5, [1-(4-{4-Amino-5-[1-(2,6-difluoro-phenyl)-methanoyl]-thiazol-2-ylamino}-piperidin-1-yl)-sulfonyl]-carbamic Acid Isopropyl Ester]", "values": [
      {"measurement": "Ki", "setting": "[1]", "value": 0.17, "unit": "µM"},
      {"measurement": "Ki", "setting": "CDK2/Cyclin A", "value": 0.038, "unit": "µM"},
      {"measurement": "IC50", "setting": "HCT-116 cell line; first HCT-116 column (c4)", "value": "> 5", "unit": "µM"},
      {"measurement": "IC50", "setting": "HCT-116 cell line; second HCT-116 column (c5)", "value": "> 5", "unit": "µM"}
    ]},
    {"smiles": "Nc1nc(NC2CCN(S(=O)(=O)Cc3ccccc3)CC2)sc1C(=O)c1c(F)cccc1F", "note": "[Example F4, 1-[4-Amino-2-(1-phenylmethanesulfonyl-piperidin-4-ylamino)-thiazol-5-yl]-1-(2,6-difluoro-phenyl)-methanone]", "values": [
      {"measurement": "Ki", "setting": "[1]", "value": 0.0028, "unit": "µM"},
      {"measurement": "Ki", "setting": "CDK2/Cyclin A", "value": 0.0041, "unit": "µM"},
      {"measurement": "IC50", "setting": "HCT-116 cell line; first HCT-116 column (c4)", "value": 0.26, "unit": "µM"},
      {"measurement": "IC50", "setting": "HCT-116 cell line; second HCT-116 column (c5)", "value": 0.59, "unit": "µM"}
    ]}
  ]
}
